The record followed here is ChEMBL document CHEMBL1201862, “PubChem BioAssay data set” (2004).

A short description of test [1]: inhibitors of intracellular T. cruzi replication, confirmation, NIH3T3 host cells, beta-gal luminescence (AID 2044).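 Note: intracellular parasites grown in NIH/3T3 mouse fibroblasts as host cells; luminescent beta-galactosidase reporter signal from transgenic T. cruzi replicating inside host cells; inhibitors lower the luminescence signal.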 It counts as functional, cell-based.
Test [2] can be described thus: cytotoxicity toward NIH3T3 fibroblasts, dose response, counter-screen, cell-based, ATP luminescence, mouse fibroblasts (AID 2010).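 Note: cells exposed to compound for about 90 hours before reading.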 In kind it is functional.
The test system of test [3] is Streptococcus sp. 'group A'. Nature of the test: growth inhibition of control SK(-) GAS strain, dose response, counter-screen for streptokinase expression inhibitor project, luminescence, kanamycin, BacTiterGlo, confirmation (AID 1900). It counts as functional, organism-based. For orientation: The purpose of a counterscreen is to sort out artefacts and off-target activity.

The test system of a further test is Streptococcus. Description: Group A Streptococcus viability loss, dose response, counter-screen for streptokinase expression inhibitor project, luminescence, BacTiterGlo (AID 1915).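 Note: potency for reduction of bacterial viability or growth.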 In kind it is functional, organism-based.

Molecules are shown by their SMILES. The source made the active and inactive calls. Cut-off read from the data, not from the text of the source: actives have a measured EC50 and inactives only a lower limit.

Usually EC50 stands for the concentration needed to bring the measured effect to its halfway point.

For `Cc1cc2c(n1-c1ccc(Br)cc1)CC(C)(C)CC2=O`, the figures for the EC50 in test [1] and in test [2] were 2.05 µM (active) and > 60 µM (not active), respectively.

Consider `Cc1cc(C)c2nc(N3C(=O)C(O)=C(C(=O)c4ccco4)C3c3ccco3)sc2c1` (configuration not stated), for which the EC50 in test [3] was 2.52 µM (active); in the test with Streptococcus, 5.86 µM (active).

On to `CCC(C)(C)n1nnnc1C(c1cccs1)N1CCN(c2nc3ccccc3s2)CC1` (configuration not stated), for which the EC50 is 1.96 µM (active) in test [1] and 8.58 µM (active) in test [2].

For `c1ccc(Cc2noc(CN3CCN(CCOc4ccccc4)CC3)n2)cc1`, the half-maximal effective concentration (EC50) was 1.09 µM (active) in test [1] and > 60 µM (not active) in test [2].

On to `CN(C)CCCNc1oc(-c2ccccc2Cl)nc1S(=O)(=O)c1ccc(F)cc1`, for which the results for the EC50 in test [1] and in test [2] were 0.135 µM (active) and 24.1 µM (active), respectively.

On to `OCC1(Cc2ccc(Cl)cc2)CCN(Cc2ccc(Oc3ncccn3)cc2)CC1`, for which the EC50 in test [1] is 0.966 µM (active); in test [2], > 60 µM (inconclusive).

For the molecule `COc1ccc(-n2nc(C)c3c(O)c4c(nc32)CCCC4)cc1`, the EC50 was 0.21 µM (active) in test [1] and > 60 µM (not active) in test [2].

Take `O=C(Nc1cccc(F)c1)NC1CCN(Cc2ccccc2)CC1`: the EC50 is 0.736 µM (active) in test [1] and > 60 µM (not active) in test [2].

Turning to `O=C(Nc1ccn(Cc2c(F)c(F)cc(F)c2F)n1)c1ccc(COc2ccccc2Cl)cc1`, the EC50 was 0.867 µM (active) in test [1] and > 60 µM (inconclusive) in test [2].

As to `CC(=O)NC(=S)Nc1ccc(S(=O)(=O)N(C)Cc2ccccc2)cc1`, the EC50 in test [1] is 1.22 µM (active); in test [2], > 30 µM (not active).

Take `CN(CC(=O)Nc1ccc(S(=O)(=O)N2CCCC2)cc1)Cc1ccc(Cl)c(Cl)c1`: the values for the 50% effective concentration (EC50) in test [1] and in test [2] were 2.04 µM (active) and > 60 µM (not active), respectively.

Take `CC(CCc1ccccc1)NC(=O)c1ccc(NC(=O)c2cccc(Br)c2)cc1` (configuration not stated): the figures for the EC50 in test [1] and in test [2] were 2.02 µM (active) and > 60 µM (not active), respectively.

Regarding `Cc1ccc2cc3cc(C(=O)N(CC(=O)NC4CCCC4)c4cccc(C)c4C)sc3nc2c1`, the EC50 in test [1] was 1.61 µM (active); in test [2] it was > 30 µM (not active).

As to `Cc1ccc([N+](=O)[O-])cc1NC(=O)CN(C1CCCCC1)S(=O)(=O)c1ccc(Cl)cc1`, the EC50 in test [1] was 3.08 µM (active); in test [2] it was > 60 µM (not active).

For the molecule `O=C(O)c1ccc(N=Nc2c(O)[nH]c3ccc(Br)cc23)cc1`, the EC50 in test [3] was 4.19 µM (active); in the test on Streptococcus it was 8.12 µM (active).

On to `CN(CC1CCCO1)S(=O)(=O)c1ccc(C(=O)Nc2nnc(-c3ccccc3)o2)cc1` (configuration not stated), for which the values for the EC50 (in test [3]; in the test with Streptococcus) were 4.14 µM (active) and 12.2 µM (active), respectively.

As for `O=C(COc1ccccc1C(=O)NCc1ccncc1)Nc1ccc(Br)cc1`, the EC50 in test [1] was 2.15 µM (active); in test [2] it was > 60 µM (not active).

For `CCC(=O)Nc1ccc(-c2nnc(-c3ccccc3)o2)cc1`, the EC50 in test [1] was 1.55 µM (active); in test [2], > 60 µM (not active).

Regarding `CC(=O)N(CCCN(C)C)c1nc2ccc(C)cc2s1`, the EC50 in test [1] was 0.236 µM (active); in test [2], > 60 µM (not active).

`COc1ccc(CN2CCCC(C(=O)c3ccc(Cl)cc3)C2)cc1Cn1cncn1` (configuration not stated): the EC50 in test [1] was 0.508 µM (active); in test [2], > 30 µM (not active).

With `CN1CCN(c2ccc(S(=O)(=O)N3CCCCC3)cc2NC(=O)COc2ccc(F)cc2)CC1`, the EC50 in test [1] is 0.538 µM (active); in test [2], > 60 µM (not active).
